{"source": "ChEMBL document CHEMBL4808212", "about": "(Bioorg Med Chem Lett, 2021)", "key": {"[1]": {"test": "Inhibition of SARS coronavirus 1 3CL protease expressed in Escherichia coli measured by HPLC method", "design": "species or system Severe acute respiratory syndrome-related coronavirus"}, "[2]": {"target": "Replicase polyprotein 1ab (Severe acute respiratory syndrome coronavirus 2, UniProt P0DTD1)", "test": "Inhibition of SARS-CoV-2 3CLpro preincubated for 30 mins followed by addition of (Dabcyl)KTSAVLQSGFRKM(Glu) peptide substrate and measured after […] by FRET assay"}, "[3]": {"test": "Binding affinity to SARS coronavirus 1 3CL protease using Dabcyl-KTSAVLQ/SGFRKME-Edans as substrate measured by FRET assay", "design": "species or system Severe acute respiratory syndrome-related coronavirus"}, "[4]": {"test": "Inhibition of SARS coronavirus 1 3CL protease using Dabcyl-KTSAVLQ/SGFRKME-Edans as substrate measured by FRET assay", "design": "species or system Severe acute respiratory syndrome-related coronavirus"}}}
{"compound": "COc1cccc2[nH]c(C(=O)N[C@@H](CC(C)C)C(=O)N[C@@H](C[C@@H]3CCNC3=O)C(=O)CO)cc12", "note": "[PF-00835231]", "values": [{"measurement": "IC50", "setting": "[1]", "result": 4, "unit": "nM"}]}
{"compound": "CCOC(=O)/C=C/[C@H](C[C@@H]1CCNC1=O)NC(=O)[C@H](CC(C)C)NC(=O)[C@@H](NC(=O)OCc1ccccc1)C(C)C", "values": [{"measurement": "IC50", "setting": "[2]", "result": 286, "unit": "nM"}]}
{"compound": "CC(C)C[C@H](NC(=O)OCc1ccccc1)C(=O)N[C@@H](C[C@@H]1CCNC1=O)C(=O)c1nc2ccccc2s1", "values": [{"measurement": "IC50", "setting": "[2]", "result": "> 10000", "unit": "nM"}]}
{"compound": "C[C@@H](OC(C)(C)C)[C@H](NC(=O)OCc1ccccc1)C(=O)N[C@@H](CC1CCCCC1)C(=O)N[C@H](C=O)C[C@@H]1CCNC1=O", "values": [{"measurement": "Ki", "setting": "[3]", "result": 53, "unit": "nM"}]}
{"compound": "O=C[C@H](C[C@@H]1CCNC1=O)NC(=O)[C@H](Cc1cccc(F)c1)NC(=O)c1cc2ccccc2[nH]1", "values": [{"measurement": "IC50", "setting": "[2]", "result": 23, "unit": "nM"}]}
{"compound": "CC(C)C[C@H](NC(=O)OCc1ccccc1)C(=O)N[C@@H](CC(C)C)C(=O)N[C@@H](C[C@@H]1CCNC1=O)C(=O)C(=O)NC(C)C", "values": [{"measurement": "IC50", "setting": "[2]", "result": 65, "unit": "nM"}, {"measurement": "IC50", "setting": "[4]", "result": 7, "unit": "nM"}]}
